Assay results from ChEMBL document CHEMBL1135038, “Initial structure-activity relationship studies of a novel series of pyrrolo[1,2-a]pyrimid-7-ones as GnRH receptor antagonists” (Bioorg Med Chem Lett, 2002).

How the values were obtained:
[1] = target: T1, Gonadotropin-releasing hormone receptor (Rattus norvegicus, UniProt P30969); experiment: Binding affinity against gonadotropin-releasing hormone receptor of rat
T1 sequence (P30969 whole entry): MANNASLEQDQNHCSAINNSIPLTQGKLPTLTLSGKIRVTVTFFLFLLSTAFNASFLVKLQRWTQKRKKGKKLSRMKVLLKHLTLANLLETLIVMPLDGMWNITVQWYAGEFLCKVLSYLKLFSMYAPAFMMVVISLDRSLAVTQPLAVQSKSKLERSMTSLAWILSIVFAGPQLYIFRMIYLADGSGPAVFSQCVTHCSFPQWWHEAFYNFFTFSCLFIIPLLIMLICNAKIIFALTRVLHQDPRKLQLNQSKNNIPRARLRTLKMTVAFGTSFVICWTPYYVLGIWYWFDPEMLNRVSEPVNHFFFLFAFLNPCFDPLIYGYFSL

[2] = target: T2, Gonadotropin-releasing hormone receptor (Homo sapiens, UniProt P30968); experiment: Inhibitory activity against human GnRH receptor using des-Gly10[125I]Tyr5, D-Leu, NMeLeu, Pro-NEt]GnRH radioligand
T2 sequence (P30968 whole entry): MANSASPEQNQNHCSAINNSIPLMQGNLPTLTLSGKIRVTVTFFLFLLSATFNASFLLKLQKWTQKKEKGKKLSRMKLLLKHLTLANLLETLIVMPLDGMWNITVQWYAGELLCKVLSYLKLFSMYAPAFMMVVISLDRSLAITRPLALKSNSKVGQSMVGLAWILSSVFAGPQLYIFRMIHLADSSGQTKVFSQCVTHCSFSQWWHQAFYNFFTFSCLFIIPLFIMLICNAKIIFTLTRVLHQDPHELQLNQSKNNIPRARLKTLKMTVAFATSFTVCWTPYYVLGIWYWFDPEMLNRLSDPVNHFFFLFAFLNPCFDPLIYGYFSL

[3] = target: T2, Gonadotropin-releasing hormone receptor; experiment: Binding affinity against human GnRH receptor expressed in HEK293 cells using des-Gly10[125I]Tyr5, D-Leu, NMeLeu, Pro-NEt GnRH as radioligand.; assay type: cell-based

Ki [3] [µM]	Structure (SMILES)	also measured
	Cc1cc(C)cc(-c2[nH]c3ccccc3c2CCNCCCCc2ccc(NS(C)(=O)=O)cc2)c1	IC50 [1]: 0.17 µM; IC50 [2]: 0.007 µM
1.2	CCOC(=O)c1cn(Cc2cc(F)ccc2F)c2c(C#N)c(-c3ccc(OCC(C)C)cc3)c(CN(C)CCc3ccccn3)n2c1=O	
2.5	COc1ccc(-c2c(C#N)c3n(Cc4ccccc4F)cc(C(=O)OC(C4CC4)C4CC4)c(=O)n3c2CN(C)CCc2ccccn2)cc1	
> 50	CCOC(=O)c1cn(Cc2ccc(F)cc2F)c2c(C#N)c(-c3ccc(OCC(C)C)cc3)c(CN(C)CCc3ccncc3)n2c1=O	
2	CCOC(=O)c1cn(Cc2c(F)cccc2F)c2c(C#N)c(-c3ccc(OC)cc3)c(CN(C)CCc3ccccn3)n2c1=O	
0.4	COc1ccc(-c2c(C#N)c3n(Cc4ccccc4F)cc(C(=O)OC(C)C)c(=O)n3c2CN(C)CCc2ccccn2)cc1	
28	CCOC(=O)c1cn(Cc2ccc(F)cc2F)c2c(C#N)c(-c3ccc(OCC(C)C)cc3)c(CN(C)CCc3cccnc3)n2c1=O	
3.7	CCOC(=O)c1cn(Cc2ccc(F)cc2F)c2c(C#N)c(-c3ccc(OC)cc3)c(CN(C)CCc3ccccn3)n2c1=O	
0.033	CN(CCc1ccccn1)Cc1c(-c2ccc(OC3CCCC3)cc2)c(C#N)c2n(Cc3ccccc3F)cc(C(=O)OC3CCCC3)c(=O)n12	Ki [1]: 8.9 µM
42	CCOC(=O)c1cn(Cc2ccccc2)c2c(C#N)c(-c3ccc(OC)cc3)c(CN(C)Cc3ccccc3)n2c1=O	
2.6	CCOC(=O)c1cn(Cc2ccccc2)c2c(C#N)c(-c3ccc(OC)cc3)c(CN(C)CCc3ccccn3)n2c1=O	
8.5	CCOC(=O)c1cn(Cc2ccccc2Cl)c2c(C#N)c(-c3ccc(OC)cc3)c(CN(C)CCc3ccccn3)n2c1=O	
0.1	CCOC(=O)c1cn(Cc2ccccc2F)c2c(C#N)c(-c3ccc(OCC(C)C)cc3)c(CN(C)CCc3ccccn3)n2c1=O	
0.4	CCOC(=O)c1cn(Cc2ccc(F)cc2F)c2c(C#N)c(-c3ccc(OCC(C)C)cc3)c(CN(C)CCc3ccccn3)n2c1=O	
> 50	CCOC(=O)c1cn(CC2CC2)c2c(C#N)c(-c3ccc(OC)cc3)c(CN(C)CCc3ccccn3)n2c1=O	
0.8	CCOC(=O)c1cn(Cc2c(F)cccc2F)c2c(C#N)c(-c3ccc(OCC(C)C)cc3)c(CN(C)CCc3ccccn3)n2c1=O	

Ki [3] [µM]	Structure (SMILES)	also measured
6	CCOC(=O)c1cn(Cc2cc(F)ccc2F)c2c(C#N)c(-c3ccc(OC)cc3)c(CN(C)CCc3ccccn3)n2c1=O	
1.8	CCOC(=O)c1cn(Cc2ccccc2F)c2c(C#N)c(-c3ccc(OC)cc3)c(CN(C)Cc3ccccc3)n2c1=O	
4.9	CCOC(=O)c1cn(Cc2ccccc2C#N)c2c(C#N)c(-c3ccc(OC)cc3)c(CN(C)CCc3ccccn3)n2c1=O	
> 50	CCOC(=O)c1cn(Cc2ccc(F)cc2F)c2c(C#N)c(-c3ccc(OCC(C)C)cc3)c(CN(C)CCc3ccccc3)n2c1=O	
0.26	COc1ccc(-c2c(C#N)c3n(Cc4ccccc4F)cc(C(=O)OC4CCCC4)c(=O)n3c2CN(C)CCc2ccccn2)cc1	
	Cc1cc(-c2c(O)nc3ccc(C(=O)Nc4ccncn4)cc3c2OCC[C@@H]2CCN2)cc(C)c1C	IC50 [1]: 0.004 µM; IC50 [2]: 0.0004 µM
0.031	CCC(CC)OC(=O)c1cn(Cc2ccccc2F)c2c(C#N)c(-c3ccc(OC4CCCC4)cc3)c(CN(C)CCc3ccccn3)n2c1=O	Ki [1]: 7.6 µM
> 50	CCOC(=O)c1cn(Cc2ccccc2)c2c(C#N)c(-c3ccc(OC)cc3)c(CN(C)C)n2c1=O	
2.1	COc1ccc(-c2c(C#N)c3n(Cc4ccccc4F)cc(C(=O)OC4CCOC4)c(=O)n3c2CN(C)CCc2ccccn2)cc1 (configuration not stated)	
6.6	CCOC(=O)c1cn(Cc2ccccc2OC)c2c(C#N)c(-c3ccc(OC)cc3)c(CN(C)CCc3ccccn3)n2c1=O	
0.18	CCC(CC)OC(=O)c1cn(Cc2ccccc2F)c2c(C#N)c(-c3ccc(OC)cc3)c(CN(C)CCc3ccccn3)n2c1=O	Ki [1]: 7.7 µM
2.2	CCOC(=O)c1cn(Cc2ccccc2OC)c2c(C#N)c(-c3ccc(OCC(C)C)cc3)c(CN(C)CCc3ccccn3)n2c1=O	
0.5	CCOC(=O)c1cn(Cc2ccccc2F)c2c(C#N)c(-c3ccc(OC)cc3)c(CN(C)CCc3ccccn3)n2c1=O	
2.4	CCOC(=O)c1cn(Cc2cccc(F)c2F)c2c(C#N)c(-c3ccc(OC)cc3)c(CN(C)CCc3ccccn3)n2c1=O	
0.025	CCC(CC)OC(=O)c1cn(Cc2ccccc2F)c2c(C#N)c(-c3ccc(OCC(C)C)cc3)c(CN(C)CCc3ccccn3)n2c1=O	Ki [1]: 7.3 µM
